Patent US20160346249A1 (priority 2012, published 2016)

Experiments:
[1] = in vivo; conditions: Crl:CD-1(ICR) BR, mouse, po; for AUC(0-t): AUC0-24
[2] = Rat pulmonary function study; format: in vivo; conditions: for animals with test article-related clinical observations: 6 hours post-dosing
Procedure: There were eight male rats per group. Clinical examinations were performed daily, and detailed physical examinations were performed prior to dosing and again following pulmonary functional assessments. Four replicates of 2 animals from each treatment group were evaluated over a 2-week period. Following dose administration, the rats were placed in a head-out neck-sealed plethysmograph for measurement of pulmonary function parameters (respiratory rate, tidal volume, and calculated minute volume). Pulmonary function data were collected for at least 60 minutes prior to dosing (Day −1) and for at least 6 hours post-dosing on Day 0.

[3] = Male rat fertility study
Procedure: Physical signs, body weight, and food consumption were recorded periodically. Males were housed for up to 10 nights 1:1 with untreated females following approximately 10 weeks of treatment. Mating was confirmed by daily examination of females for the presence of a vaginal copulatory plug or sperm in a vaginal lavage. The day of observing a seminal plug and/or sperm was considered GD 0. Females were euthanized on GD 15, 16, or 17 and the uterus of each female rat was examined to determine pregnancy status. Corpora lutea per female were counted. Uterine implantations were counted, and each was classified as a live fetus, dead fetus, or a resorption. At termination, the left cauda epididymis from males were weighed, and frozen. Subsequently, these tissues were prepared and analyzed for sperm number. At necropsy, a sperm suspension from the mid-region of the left vas deferens of each male was prepared and evaluated for percent motile sperm (from ≧150 cells per male).

[4] = 2-week rat toxicology and toxicokinetic study; format: in vivo; conditions: for Cmax / Tmax / AUC(0-t): po; for AUC(0-t): read-out: AUC0-24
[5] = female, Crl:CD (SD)IGS BR, rat, in vivo, 10 mg/kg/day, females, 10 mg/kg/day, Day 0
[6] = female, Crl:CD (SD)IGS BR, rat, in vivo, 10 mg/kg/day, females, 10 mg/kg/day, Day 13
[7] = female, Crl:CD (SD)IGS BR, rat, in vivo, 20 mg/kg/day, females, 20 mg/kg/day, Day 0
[8] = female, Crl:CD (SD)IGS BR, rat, in vivo, 20 mg/kg/day, females, 20 mg/kg/day, Day 13
[9] = female, Crl:CD (SD)IGS BR, rat, in vivo, 40 mg/kg/day, females, 40 mg/kg/day, Day 0
[10] = female, Crl:CD (SD)IGS BR, rat, in vivo, 40 mg/kg/day, females, 40 mg/kg/day, Day 13
[11] = male, Crl:CD (SD)IGS BR, rat, in vivo, 10 mg/kg/day, males, 10 mg/kg/day, Day 13
[12] = male, Crl:CD (SD)IGS BR, rat, in vivo, 20 mg/kg/day, males, 20 mg/kg/day, Day 0
[13] = male, Crl:CD (SD)IGS BR, rat, in vivo, 20 mg/kg/day, males, 20 mg/kg/day, Day 13
[14] = male, Crl:CD (SD)IGS BR, rat, in vivo, 40 mg/kg/day, males, 40 mg/kg/day, Day 0
[15] = male, Crl:CD (SD)IGS BR, rat, in vivo, 40 mg/kg/day, males, 40 mg/kg/day, Day 13
[16] = male, Crl:CD(SD)IGS BR, rat, in vivo, 10 mg/kg/day, males, 10 mg/kg/day, Day 0

For `Clc1ccc([C@]23CNC[C@H]2C3)cc1Cl` [amitifadine, (+)-1-(3,4-dichlorophenyl)-3-azabicyclo[3.1.0]hexane], the AUC(0-t) ([1]; female, 10 mg/kg/day) was 2490 ng·h/mL, the Cmax ([1]; female, 10 mg/kg/day) was 323 ng/mL and the Tmax ([1]; female, 10 mg/kg/day) was 2 h. The AUC(0-t) ([1]; female, 30 mg/kg/day) was 9920 ng·h/mL, the Cmax ([1]; female, 30 mg/kg/day) was 1140 ng/mL and the Tmax ([1]; female, 30 mg/kg/day) was 2 h. It also gave an AUC(0-t) ([1]; female, 100 mg/kg/day) of 20200 ng·h/mL, a Tmax ([1]; female, 100 mg/kg/day) of 2 h and a Cmax ([1]; female, 150 mg/kg/day) of 4940 ng/mL. It also gave a Tmax ([1]; female, 150 mg/kg/day) of 2 h, an AUC(0-t) ([1]; male, 10 mg/kg/day) of 1970 ng·h/mL and a Cmax ([1]; male, 10 mg/kg/day) of 261 ng/mL. The Tmax ([1]; male, 10 mg/kg/day) was 1 h, the AUC(0-t) ([1]; male, 30 mg/kg/day) was 12800 ng·h/mL and the Cmax ([1]; male, 30 mg/kg/day) was 1060 ng/mL. It also gave a Tmax ([1]; male, 30 mg/kg/day) of 1 h, an AUC(0-t) ([1]; male, 100 mg/kg/day) of 22300 ng·h/mL and a Cmax ([1]; male, 100 mg/kg/day) of 3900 ng/mL. It also gave a Tmax ([1]; male, 100 mg/kg/day) of 2 h, an AUC(0-t) ([1]; male, 150 mg/kg/day) of 71100 ng·h/mL and a Cmax ([1]; male, 150 mg/kg/day) of 5610 ng/mL. The Tmax ([1]; male, 150 mg/kg/day) was 1 h, the “animals with test article-related clinical observations” value ([2]; 30 mg/kg) was “⅜” and the increased respiratory frequency ([2]; 100 mg/kg, 16 to 30 minutes post-dosing) was 23%. For the same molecule, the “animals with test article-related clinical observations” value ([2]; 100 mg/kg) was 6/8, the elevated respiratory frequency ([2]; 100 mg/kg, later post-treatment intervals) was at least 33% and the NOAEL ([2]; male, Crl:CD(SD)IGS BR, rat, in vivo, single oral gavage) was 30 mg/kg. The “decrease in sperm count/g cauda epididymis” value ([3]; 13 mg/kg/day) was −18%, the “decreased mean body weight gain” value ([3]; 13 mg/kg/day) was 7% and the “decreases in fecundity and fertility indices” value ([3]; 13 mg/kg/day) was −9%. For the same molecule, the “decrease in percent motile sperm” value ([3]; 39 mg/kg/day) was −33%, the “decreased mean body weight gain” value ([3]; 39 mg/kg/day) was 9% and the “decreased sperm count/g cauda epididymis” value ([3]; 39 mg/kg/day) was −44%. The “decreases in fecundity and fertility indices” value ([3]; 39 mg/kg/day) was −9%, the “decreased mean food consumption” value ([3]; 39 mg/kg/day, first week) was −60% and the “mean body weight loss” value ([3]; 39 mg/kg/day, initial week) was -24 g. The “NOEL general and reproductive toxicity” value ([3]; male, Crl:CD(SD) IGS BR, rat, in vivo, 14 weeks) was 4 mg/kg/day, the NOAEL at 14 days ([4]; both sexes, Crl:CD(SD)IGS BR, rat, in vivo, oral gavage, 14 days, read-out: NOAEL for systemic toxicity) was 40 mg/kg/day and the Cmax [4, 5] was 1830 ng/mL. It also gave a Tmax [4, 5] of 2 h, an AUC(0-t) [4, 5] of 11600 ng·h/mL and a Cmax [4, 6] of 1150 ng/mL. The Tmax [4, 6] was 2 h, the AUC(0-t) [4, 6] was 8190 ng·h/mL and the Cmax [4, 7] was 2800 ng/mL. For the same molecule, the Tmax [4, 7] was 1 h, the AUC(0-t) [4, 7] was 28600 ng·h/mL and the Cmax [4, 8] was 2300 ng/mL. The Tmax [4, 8] was 1 h, the AUC(0-t) [4, 8] was 22000 ng·h/mL and the Cmax [4, 9] was 4440 ng/mL. It also gave a Tmax [4, 9] of 4 h, an AUC(0-t) [4, 9] of 50600 ng·h/mL and a Cmax [4, 10] of 3100 ng/mL. For the same molecule, the Tmax [4, 10] was 2 h, the AUC(0-t) [4, 10] was 32900 ng·h/mL and the “increase in mean absolute liver weight” value ([4]; females, 40 mg/kg/day) was 18%. The Cmax [4, 11] was 878 ng/mL, the Tmax [4, 11] was 2 h and the AUC(0-t) [4, 11] was 6310 ng·h/mL. For the same molecule, the Cmax [4, 12] was 3000 ng/mL, the Tmax [4, 12] was 1 h and the AUC(0-t) [4, 12] was 17400 ng·h/mL. It also gave a Tmax [4, 13] of 2 h, an AUC(0-t) [4, 13] of 13000 ng·h/mL and a Cmax [4, 14] of 3040 ng/mL. It also gave a Tmax [4, 14] of 1 h, an AUC(0-t) [4, 14] of 34800 ng·h/mL and a Cmax [4, 15] of 2730 ng/mL. For the same molecule, the Tmax [4, 15] was 1 h, the AUC(0-t) [4, 15] was 25600 ng·h/mL and the Tmax [4, 16] was 1 h. The AUC(0-t) [4, 16] was 7880 ng·h/mL and the “increase in mean absolute liver weight” value ([4]; males, 40 mg/kg/day) was 20%.
